{"source": "patent US20260207626A1", "about": "“SYNTHETIC TRITERPENOIDS AND COMPOSITIONS THEREOF IN WEIGHT MANAGEMENT, SKELETAL MUSCLE FUNCTION, AND APPETITE SUPPRESSION” (The Board of Regents of the University of Texas System, priority 2022, published 2026)", "key": {"NFκB": {"tested_on": "NFκB", "experiment": "Western blot of palmitate (PA)-induced NFκB phosphorylation in L6-GLUT4myc myotubes", "assay_type": "cell-based, rat", "conditions": "CDDO-EA 500 nM 1 h then PA 400 μM 6 h", "experimental": "L6-GLUT4myc myotubes were pretreated with CDDO-EA (500 nM, 1 h) and then treated with PA (400 μM, 6 h). NFκB phosphorylation and protein were measured by Western blotting. Data are represented as ±SEM. * P<0.05 vs. control; ^#P<0.05 vs. […]. (One-Way ANOVA)."}, "[1]": {"experiment": "Body weight of mice fed LFD or HFD with or without CDDO-EA in the chow for 6 weeks", "assay_type": "in vivo, C57B16/J mice", "excerpt": "To assess the protective effects of CDDO-EA from obesity and insulin resistance, C57B16/J mice (6-8 weeks old, male, strain #000664, The Jackson Laboratory) were used. The animals were fed a Low Fat diet (LFD) (10% total calories from fat, […]) or a High Fat diet (HFD) (60% of total calories from fat) incorporated with or without CDDO-EA (chow containing 0.04% CDDO-EA) for six weeks. Feeding groups: The mice were put into one of four groups: • (i) HFD (60% total calories from fat), • (ii) HFD+0.04% CDDO-EA, • (iii) LFD (10% total calories from fat), • (iv) LFD+0.04% CDDO-EA. Unlike Shin et al. and Camer et al., where the CDDO was administered via gavage or in the drinking water, the present studies provide for a feed material (veterinary chow mix) formulated to include 400 mg CDDO-EA in 1 kilogram of veterinary chow, which is 0.04% CDDO-EA in 1 kilogram of veterinary chow. […] This is because the amount of chow without CDDO-EA (LFD) consumed by the animals was approximately the same amount of chow with CDDO-EA consumed by the animals (LFD+CDDO-EA) (See Table 3). Data were statistically analyzed by One-Way ANOVA, Two-Way ANOVA with repeated measures, or Two-Way ANOVA with Tukey's multiple comparison test. Throughout the collection of blood samples, OGTTs, and measurement of bodyweight, mice were unrestrained and awake. Blood samples were collected via tail snip before start of experimental feeding and then every two weeks. Oral glucose tolerance tests (OGTTs) were performed after the six-week experimental feeding, and blood samples were collected via tail snip during the OGTT. For OGTT, mice were given 2 g of glucose/kg of body weight by gavage after a five hour fast (36). Glucose levels were measured using a glucometer (Contour), and insulin concentrations were measured using an ELISA (Mercodia). Mice were weighed once a week. Glucose and insulin serum levels were measured every two weeks."}, "[2]": {"experiment": "Energy expenditure (Promethion Metabolic Analyzer) in mice fed HFD with or without CDDO-EA, LFD or HFD pair-fed", "assay_type": "in vivo, C57BL/6J mice", "conditions": "HFD + CDDO-EA (0.04%), days 3-9", "experimental": "FIG. 22A and FIG. 22B. […] FIG. 22A. EE was measured 289 times in a 24-hour cycle at each day from 3-9 days of the experimental feeding. FIG. 22B. Average EE for days 3-9 of experimental feeding. C57BL/6J mice were fed a HFD with or without incorporation of CDDO-EA (diet containing 0.04% CDDO-EA) or LFD or HFD pair-fed for 6 weeks (n=5).\n(§1) C57BL/6J mice (6-8 weeks old, male, strain #000664, The Jackson Laboratory) were divided into four (4) groups (i)-(iv)): (i) ad libitum Low fat caloric content (LFD-10% of total calories from fat caloric content, #TD.08806, Envigo), (ii) ad libitum HFD (60% of total calories from fat caloric content, #TD.06414, Envigo), (iii) HFD+CDDO-EA (diet containing 0.04% CDDO-EA), and (iv) HFD pair-fed to food intake of mice fed HFD+CDDO-EA. The study was for 6 weeks (42 days) (performed at Vanderbilt Metabolic Mouse Phenotyping Center (VMMPC)). Mice were singly housed in a Promethion Metabolic Analyzer and were monitored continuously for 7 days to assess feeding and EE."}, "[3]": {"experiment": "Body composition by NMR at 42 days", "assay_type": "in vivo, C57BL/6J mice", "conditions": "all groups", "experimental": "FIG. 24—Body composition at 42 days. Body composition was measured by NMR. C57BL/6J mice were fed a HFD with or without incorporation of CDDO-EA (diet containing 0.04% CDDO-EA) or LFD or HFD pair-fed for 6 weeks (n=5). BW=body weight. Data are represented as mean±SEM (Two-way Repeated Measures ANOVA).\nas §1"}, "[4]": {"experiment": "Serum glucose and insulin, oral glucose tolerance test (OGTT) in mice fed LFD or HFD with or without CDDO-EA", "assay_type": "in vivo, C57B16/J mice", "experimental": "Data were statistically analyzed by One-Way ANOVA, Two-Way ANOVA with repeated measures, or Two-Way ANOVA with Tukey's multiple comparison test. Throughout the collection of blood samples, OGTTs, and measurement of bodyweight, mice were unrestrained and awake. Blood samples were collected via tail snip before start of experimental feeding and then every two weeks. Oral glucose tolerance tests (OGTTs) were performed after the six-week experimental feeding, and blood samples were collected via tail snip during the OGTT. For OGTT, mice were given 2 g of glucose/kg of body weight by gavage after a five hour fast (36). Glucose levels were measured using a glucometer (Contour), and insulin concentrations were measured using an ELISA (Mercodia). Mice were weighed once a week. Glucose and insulin serum levels were measured every two weeks.\nGlucose and insulin levels were measured in the subject animals to determine if prevention of obesity by CDDO-EA in a high fat diet (HFD) chow regimen and in a low fat diet (LFD) regimen coincided with a reduction in hyperglycemia and hyperinsulinemia."}}, "note": "“Also recorded” adds a separate entry of the source."}
{"compound": "CCNC(=O)[C@]12CCC(C)(C)C[C@H]1C1C(=O)C=C3[C@@]4(C)C=C(C#N)C(=O)C(C)(C)[C@@H]4CC[C@@]3(C)[C@]1(C)CC2", "note": "(stereo partly drawn) [CDDO-EA, (4aS,6aR,6bS,8aR,12aS,14bS)-11-cyano-N-ethyl-2,2,6a,6b,9,9,12a-heptamethyl-10,14-dioxo-1,3,4,5,6,6a,6b, 7,8,8a,9,10,12a, 14,14a, 14b-hexadecahydropicene-4a (2H)-carboxamide]", "values": [{"measurement": "PA-induced NFκB phosphorylation", "setting": "NFκB", "result": "inhibits PA-induced NF-κB activation; also recorded: inhibits PA-induced NFκB phosphorylation"}, {"measurement": "difference in weight between mice fed a high fat diet and mice fed a high fat diet incorporated with CDDO-EA", "setting": "[1]; 0.04% CDDO-EA, 6 weeks", "result": 66.8, "unit": "%"}, {"measurement": "Average Weight (g) of Mice", "setting": "[1]; HFD + CDDO-EA (0.04%), week 1", "result": "23.4 ± 0.5", "unit": "g"}, {"measurement": "Average Weight (g) of Mice", "setting": "[1]; HFD + CDDO-EA (0.04%), week 2", "result": "23.2 ± 0.5", "unit": "g"}, {"measurement": "Average Weight (g) of Mice", "setting": "[1]; HFD + CDDO-EA (0.04%), week 3", "result": "24.6 ± 0.5", "unit": "g"}, {"measurement": "Average Weight (g) of Mice", "setting": "[1]; HFD + CDDO-EA (0.04%), week 4", "result": "24.1 ± 0.5", "unit": "g"}, {"measurement": "Average Weight (g) of Mice", "setting": "[1]; HFD + CDDO-EA (0.04%), week 5", "result": "25.4 ± 0.5", "unit": "g"}, {"measurement": "Average Weight (g) of Mice", "setting": "[1]; HFD + CDDO-EA (0.04%), week 6", "result": "25.3 ± 0.5", "unit": "g"}, {"measurement": "body weight gain / obesity", "setting": "[1]; HFD + CDDO-EA (400 mg/kg diet, 0.04%), 6 weeks", "result": "did not have a significant increase in body weight; also recorded: significantly blocked gain weight; also recorded: prevented the excess weight gain; also recorded: inhibits weight gain and obesity in vivo; also recorded: did not evidence a significant weight gain; also recorded: prevents obesity"}, {"measurement": "Average Weight (g) of Mice", "setting": "[1]; HFD + CDDO-EA (diet containing 0.04% CDDO-EA), week 0", "result": "23.8 ± 0.5", "unit": "g"}, {"measurement": "significant weight gain prevented", "setting": "[1]; HFD incorporated with 0.04% CDDO-EA", "result": 66.8, "unit": "%"}, {"measurement": "Average Weight (g) of Mice", "setting": "[1]; LFD + CDDO-EA (0.04%), week 1", "result": "24.4 ± 0.9", "unit": "g"}, {"measurement": "Average Weight (g) of Mice", "setting": "[1]; LFD + CDDO-EA (0.04%), week 2", "result": "24.4 ± 0.8", "unit": "g"}, {"measurement": "Average Weight (g) of Mice", "setting": "[1]; LFD + CDDO-EA (0.04%), week 3", "result": "25.8 ± 0.7", "unit": "g"}, {"measurement": "Average Weight (g) of Mice", "setting": "[1]; LFD + CDDO-EA (0.04%), week 4", "result": "25.4 ± 0.7", "unit": "g"}, {"measurement": "Average Weight (g) of Mice", "setting": "[1]; LFD + CDDO-EA (0.04%), week 5", "result": "26.4 ± 0.6", "unit": "g"}, {"measurement": "Average Weight (g) of Mice", "setting": "[1]; LFD + CDDO-EA (0.04%), week 6", "result": "26.0 ± 0.4", "unit": "g"}, {"measurement": "Average Weight (g) of Mice", "setting": "[1]; LFD + CDDO-EA (diet containing 0.04% CDDO-EA), week 0", "result": "25.5 ± 1.0", "unit": "g"}, {"measurement": "energy expenditure (EE)", "setting": "[2]", "result": "does not affect EE; also recorded: does not affect energy expenditure"}, {"measurement": "lean mass", "setting": "[3]", "result": "no difference in lean mass between the groups"}, {"measurement": "OGTT serum glucose", "setting": "[4]; HFD + CDDO-EA, after 6 weeks (FIG. 6B)", "result": "prevented increased serum glucose; also recorded: significantly decrease to glucose levels before the HFD experimental feeding; also recorded: prevents glucose intolerance"}, {"measurement": "OGTT serum insulin", "setting": "[4]; HFD + CDDO-EA, after 6 weeks (FIG. 7B)", "result": "prevented increased serum glucose (FIG. 6B) and insulin concentrations; also recorded: insulin levels did not increase significantly; also recorded: prevents hyperinsulinemia"}, {"measurement": "serum glucose levels during feeding", "setting": "[4]; HFD with CDDO-EA, weeks 0-6 (FIG. 13A)", "result": "did not increase throughout the six-week feeding; also recorded: prevents glucose intolerance"}, {"measurement": "serum insulin levels during feeding", "setting": "[4]; HFD with CDDO-EA, weeks 0-6 (FIG. 13B)", "result": "remained significantly higher in mice fed only a HFD compared to mice fed a HFD with CDDO-EA; also recorded: prevents hyperinsulinemia"}, {"measurement": "serum glucose levels", "setting": "[4]; LFD + CDDO-EA, after 6 weeks (FIG. 6A)", "result": "no significant increase or decrease in serum glucose levels; also recorded: did not affect glucose and insulin levels of mice fed LFD with CDDO-EA"}, {"measurement": "insulin levels", "setting": "[4]; LFD + CDDO-EA, after 6 weeks (FIG. 7A)", "result": "overlap with the insulin levels before experimental feeding; also recorded: did not affect glucose and insulin levels of mice fed LFD with CDDO-EA"}]}
